The target in series [1] is T1, Simian chymase (Macaca mulatta, UniProt F6SAJ2).
T1 sequence (F6SAJ2 22-247 limits assumed): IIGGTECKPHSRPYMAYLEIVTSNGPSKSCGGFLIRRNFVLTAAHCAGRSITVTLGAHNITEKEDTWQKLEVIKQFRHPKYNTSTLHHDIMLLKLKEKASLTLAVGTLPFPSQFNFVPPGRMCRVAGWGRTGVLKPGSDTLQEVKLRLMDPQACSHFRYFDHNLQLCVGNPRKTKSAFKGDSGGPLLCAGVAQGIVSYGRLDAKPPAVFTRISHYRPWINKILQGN
Put plainly: Measurement of inhibitory activity of simian chymase (Ang I substrate, His-Leu/OPT fluorescence). The series is classed as biochemical, rhesus monkey. Particulars: chymase from heart of rhesus monkey; 120 minutes at 37° C.; read-out: Simian chymase IC50 value.
Experimental: (§5) That is, the activity was measured by reacting free His-Leu formed together with Ang II with o-phthalaldehyde (hereinafter, abbreviated as OPT) to prepare a fluorescent derivative and determining the amount quantitatively by means of a fluorophotometer.
(§6) First, 3.6 μmol of each test compound was weighed in a test tube and was dissolved into 3 mL of DMSO. The DMSO solution was diluted 1000-fold with 20 mmol/L Tris-hydrochloric acid buffer solution (pH 8.0) containing 0.01% Triton X-100 and 0.5 mol/L potassium chloride to prepare 1.2×10^−6 mol/L solution, which was successively diluted with the buffer solution to prepare test sample solutions having concentrations of 1.2×10^−6 mol/L to 1.2×10^−9 mol/L. To 500 μL of the test sample solution of each concentration or buffer solution was added 50 μL of an enzyme solution, followed by 10 minutes of pre-incubation at 37° C. Then, 50 μL of 0.1 mmol/L Ang I solution was added to initiate a reaction. Human angiotensin I (manufactured by SIGMA) was employed as Ang I. The enzyme solution to be used for the reaction was adjusted so as to hydrolyze about 60% of substrate under the conditions, and the reaction wherein a buffer solution containing no enzyme was carried out as a blind test. […] Thereafter, the reaction mixture was centrifuged at 4° C. at 3,000 rpm for 10 minutes and 2 mL of 2 mol/L sodium hydroxide and 1 mL of methanol were added to 1 mL of the resulting supernatant. […] The measurement was repeated twice for each sample and blind test. The fluorescence intensity obtained by subtracting the average value at blind test from the average value thereof was determined as chymase activity.
(§7) In this regard, an enzymatic reaction using a buffer solution instead of the test sample solution was carried out as a control, and inhibitory ratio of chymase activity was determined as percentage by dividing the difference of subtraction of the activity at the addition of the test compound from the chymase activity at the control by the chymase activity at the control.

Series [2] concerns the target T2, Chymotrypsin (Bos taurus, UniProt P00766).
T2 construct: Chymotrypsin Type I-S derived from bovine pancreas; purchased SIGMA Type I-S; host or cells: bovine pancreas
Briefly: Measurement of chymotrypsin inhibitory activity (Suc-Ala-Ala-Pro-Phe-pNA). It is filed as biochemical. Particulars: Chymotrypsin Type I-S from bovine pancreas; 30 minutes at 37° C. How it is done:
(§1) Measurement of Cathepsin G Inhibitory Activity and Chymotrypsin Inhibitory Activity
(§2) Each activity of cathepsin G or chymotrypsin was measured by determining the amount of free p-nitroaniline quantitatively using a synthetic substrate that is colorless and yields colored product upon hydrolysis, by means of a spectrophotometer. Chymotrypsin Type I-S derived from bovine pancreas was purchased from SIGMA. As cathepsin G, the product of Elastin Products Company, Inc. derived from human purulent sputum was used. Suc-Ala-Ala-Pro-Phe-pNA (manufactured by SIGMA) was used as the synthetic substrate. An inhibitory effect of a compound on each enzyme was determined by the following method.
(§3) Each test compound (5 μmol) was weighed in a test tube and dissolved into 2 mL of DMSO. […] Then, 200 μL of 1 mmol/L substrate solution was added to initiate en enzymatic reaction under a temperature of 37° C.
(§4) Based on each inhibitory ratio, IC50 value was calculated.

For series [3], the target named is T3, Cathepsin G (Homo sapiens, UniProt P08311).
T3 construct: the product of Elastin Products Company, Inc. derived from human purulent sputum was used; purchased Elastin Products Company, Inc; host or cells: human purulent sputum
T3 sequence (P08311 21-244): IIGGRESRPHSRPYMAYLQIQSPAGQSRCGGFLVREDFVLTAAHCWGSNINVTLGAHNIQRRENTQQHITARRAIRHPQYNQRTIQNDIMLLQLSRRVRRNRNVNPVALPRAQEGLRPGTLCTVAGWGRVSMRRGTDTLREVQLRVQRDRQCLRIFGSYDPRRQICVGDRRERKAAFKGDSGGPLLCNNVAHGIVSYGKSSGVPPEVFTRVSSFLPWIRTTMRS
Put plainly: Measurement of cathepsin G inhibitory activity (Suc-Ala-Ala-Pro-Phe-pNA). The series is classed as biochemical. Particulars: cathepsin G from human purulent sputum; 60 minutes at 37° C. How it is done: as §1, §2, §3, §4

Series [4] can be described thus: Stability in rat plasma. It is filed as in vitro ADME. Particulars: 10 μg/mL, 37° C., 60 minutes, HPLC. How it is done:
Stability of the compounds of the invention in rat plasma was investigated.
Male SD rats (7-week-old) were anesthetized with ether under over-night fasting conditions and, after an abdominal part was incised, blood was collected from aorta abdominalis using a heparinized disposable plastic syringe. The blood was centrifuged under cooling to collect a supernatant plasma. The collected plasma was stored under freezing at −30° C. and was melted before use. After a test compound was dissolved in DMSO, the solution was added to 200 μL of the plasma so as to be 10 μg/mL, followed by incubation at 37° C. After 60 minutes, the mixture was acidified by adding 200 μL of 0.1 mol/L hydrochloric acid, and then extracted twice with 2 mL of ethyl acetate. The resulting organic layer was evaporated to dryness under a nitrogen gas flow and the residue was dissolved into 200 μL of acetonitrile to prepare a sample solution. On the other hand, the test compound was dissolved into 1% acetonitrile solution of DMSO so as to be 10 μg/mL as a control solution. The sample solution and control solution was investigated by high performance liquid chromatography (hereinafter, abbreviated as HPLC). Residual ratio (%) was determined as percentage by dividing the peak area of the sample solution by the peak area of the control solution.
Column: Waters Nova Pack C18 (inner diameter: 3.9 mm, length: 150 mm)
Mobile phase A: acetonitrile/water=10/90
Mobile phase B: acetonitrile/methanol=50/50
Eluent: Mobile phase A-mobile phase B (100/0 to 0/100, linear gradient, 50 minutes)
Amount of injection: 50 μL

Series [5] addresses T4, Human chymase (Homo sapiens, UniProt P23946).
T4 sequence (P23946 22-247): T1 sequence (F6SAJ2 22-247 limits assumed) with S29F, K63E, Y159D, L201S, K221Q, G225A
Put plainly: Measurement of inhibitory activity of human chymase (Ang I substrate, His-Leu/OPT fluorescence).
Experimental: as §5, §6, §7

The mark [6] stands for this setting: read-out: Human cymase IC50 value, human chymase from silkworms infected with baculovirus, 120 minutes at 37° C.

One may read the IC50 as the concentration at which inhibition is half-maximal. One may read the melting point as the temperature, or range, at which the solid turns liquid.

Numbering of substitutions follows the chain as printed. Counter-ions that a name gives are not always drawn. Like-named read-outs stand apart in the source and are kept apart here. A value given as a limit tells only on which side of the number the result lay.

With `COC(=O)c1ccc(NS(=O)(=O)c2sc3ccc(Cl)cc3c2C)c(S(C)(=O)=O)c1` [Compound 1, Methyl 4-(5-chloro-3-methylbenzo[b]thiophene-2-sulfonylamino)-3-methanesulfonylbenzoate], the IC50 in series [1] is 50 nM; in series [2], over 10000 nM; in series [3], over 10000 nM; in series [5] (setting [6]), 203 nM. In addition, the “Residual ratio in rat plasma” value in series [4] is on record as 93.9%.

`CCOC(=O)c1ccc(NS(=O)(=O)c2sc3ccc(Cl)cc3c2C)c(S(C)(=O)=O)c1` [Compound 2, Ethyl 4-(5-chloro-3-methylbenzo[b]thiophene-2-sulfonylamino)-3-methanesulfonylbenzoate]: in series [1], the IC50 came to 42 nM.

`Cc1c(S(=O)(=O)Nc2ccc(-c3nc(CO)co3)cc2S(C)(=O)=O)sc2ccc(F)cc12` [Compound 66] had a melting point of 242 to 244 °C. Besides, in series [5], the midpoint of inhibition, the IC50, lay at 39 nM.

Consider `CC(=O)c1ccc(NS(=O)(=O)c2sc3ccc(Cl)cc3c2C)c(S(C)(=O)=O)c1` [Compound 11, N-(4-acetyl-2-methanesulfonylphenyl)-5-chloro-3-methylbenzo[b]thiophene-2-sulfonamide], for which the concentration for half-maximal inhibition (IC50) in series [1] came to 100 nM; in series [5], 271 nM.

As for `Cc1c(S(=O)(=O)Nc2ccc(C(=O)OC(C)(C)C)cc2S(C)(=O)=O)sc2ccc(Cl)cc12` [Compound 3, tert-butyl 4-(5-chloro-3-methylbenzo[b]thiophene-2-sulfonylamino)-3-methanesulfonylbenzoate], the IC50 in series [1] came out at 178 nM.

With `Cc1c(S(=O)(=O)Nc2ccc(C(=O)NCC(=O)O)cc2S(C)(=O)=O)sc2ccc(Cl)cc12` (as salt: sodium) [Compound 52], the melting point was 290 to 292 °C.

On to `COc1oc(-c2ccc(NS(=O)(=O)c3sc4ccc(F)cc4c3C)c(S(C)(=O)=O)c2)nc1C` [Compound 56, 5-fluoro-N-[2-methanesulfonyl-4-(5-methoxy-4-methyloxazol-2-yl)phenyl]-3-methylbenzo[b]thiophene-2-sulfonamide], for which 102 nM corresponded to half-maximal inhibition in series [5] (IC50).

On to `CCS(=O)(=O)c1cc(C(=O)OC)ccc1NS(=O)(=O)c1sc2ccc(Cl)cc2c1C` [Compound 4, Methyl 4-(5-chloro-3-methylbenzo[b]thiophene-2-sulfonylamino)-3-ethanesulfonylbenzoate], for which the IC50 in series [1] was 111 nM; in series [2] it was over 10000 nM; in series [3] it was over 10000 nM. Also, the “Residual ratio in rat plasma” value in series [4] was 93.5%.

In the case of `Cc1c(S(=O)(=O)Nc2ccc(CO)cc2S(C)(=O)=O)sc2ccc(Cl)cc12` [Compound 13, 5-chloro-N-(4-hydroxymethyl-2-methanesulfonylphenyl)-3-methylbenzo[b]thiophene-2-sulfonamide], the IC50 in series [1] was 271 nM.

With `CCOC(=O)c1ccc(NS(=O)(=O)c2sc3ccc(Cl)cc3c2C)cc1` [Compound 14, ethyl 4-(5-chloro-3-methylbenzo[b]thiophene-2-sulfonylamino)benzoate], the concentration for half-maximal inhibition (IC50) in series [1] was 278 nM; in series [2], over 10000 nM; in series [3] it was over 10000 nM. In addition, the “Residual ratio in rat plasma” value in series [4] was found to be 79.2%.

In the case of `COC(=O)c1ccc(NS(=O)(=O)c2sc3ccc(Cl)cc3c2C)c([N+](=O)[O-])c1` [Compound 8, Methyl 4-(5-chloro-3-methylbenzo[b]thiophene-2-sulfonylamino)-3-nitrobenzoate], the IC50 in series [2] and in series [3] was over 10000 nM throughout.

Take `CC(=O)c1ccc(NS(=O)(=O)c2sc3ccc(F)cc3c2C)c(S(C)(=O)=O)c1` [Compound 19, N-(4-acetyl-2-methanesulfonylphenyl)-5-fluoro-3-methylbenzo[b]thiophene-2-sulfonamide]: the concentration for half-maximal inhibition (IC50) in series [1] was found to be 20 nM; in series [5] (setting [6]), 82 nM. Also, the “Residual ratio in rat plasma” value in series [4] worked out at 96.2%.

Compound `Cc1c(S(=O)(=O)Nc2ccc(-c3ncco3)cc2S(C)(=O)=O)sc2ccc(F)cc12` [Compound 73, 5-fluoro-N-[2-methanesulfonyl-4-(oxazol-2-yl)phenyl]-3-methylbenzo[b]thiophene-2-sulfonamide] returned an IC50 in series [5] of 55 nM.

Turning to `Cc1c(S(=O)(=O)Nc2ccc(C(=O)NCC(=O)O)cc2S(C)(=O)=O)sc2ccc(Cl)cc12` [Compound 52], in series [1], the half-inhibitory concentration (IC50) came to 157 nM.

In series [5], `Cc1c(S(=O)(=O)Nc2ccc(-c3nc(CO)cs3)cc2S(C)(=O)=O)sc2ccc(F)cc12` [Compound 63, 5-fluoro-N-[4-(4-hydroxymethylthiazol-2-yl)-2-methanesulfonylphenyl]-3-methylbenzo[b]thiophene-2-sulfonamide] had a half-maximal inhibitory concentration (IC50) of 20 nM.

For `CS/C(=C\c1ccc(NS(=O)(=O)c2sc3ccc(F)cc3c2C)c(S(C)(=O)=O)c1)[S+](C)[O-]` (centres unmarked) [Compound 72, 5-fluoro-N-[2-methanesulfonyl-4-((E)-2-methanesulfinyl-2-methylsulfanylvinyl)phenyl]-3-methylbenzo[b]thiophene-2-sulfonamide], inhibition in series [5] was half-maximal at 20 nM (IC50).

With `COC(=O)c1cc(S(C)(=O)=O)c(NS(=O)(=O)c2sc3ccc(Cl)cc3c2C)cc1C` [Compound 5, Methyl 4-(5-chloro-3-methylbenzo[b]thiophene-2-sulfonylamino)-5-methanesulfonyl-2-methylbenzoate], the IC50 in series [1] was 150 nM; in series [2] it was over 1000 nM; in series [3], over 1000 nM. For the same compound, in series [4], the “Residual ratio in rat plasma” value amounted to 85.2%.

Regarding `COC(=O)c1coc(-c2ccc(NS(=O)(=O)c3sc4ccc(Cl)cc4c3C)c(S(C)(=O)=O)c2)n1` [Compound 25, methyl 2-[4-(5-chloro-3-methylbenzo[b]thiophene-2-sulfonylamino)-3-methanesulfonylphenyl]oxazole-4-carboxylate], the melting point is 296 to 298 °C. Also, the IC50 in series [1] amounted to 75 nM.

Consider `CC(C)C[C@H](NC(=O)[C@@H](NC(=O)N[C@@H](Cc1ccccc1)C(=O)O)[C@@H]1CCN=C(N)N1)C(=O)N[C@H](C=O)Cc1ccccc1` [Chymostatin, reference compound], for which, in series [3], the IC50 is 5.99 nM.

In the case of `Cc1c(S(=O)(=O)Nc2ccc(-c3nc(C(=O)O)co3)cc2S(C)(=O)=O)sc2ccc(Cl)cc12` [Compound 26, 2-[4-(5-chloro-3-methylbenzo[b]thiophene-2-sulfonylamino)-3-methanesulfonylphenyl]oxazole-4-carboxylic acid], the half-inhibitory concentration (IC50) in series [1] was 10 nM; in series [2] it was over 10000 nM; in series [3] it was over 10000 nM; in series [5], 150 nM. Further, the “Residual ratio in rat plasma” value in series [4] came to 100%.

For `Cc1coc(-c2ccc(NS(=O)(=O)c3sc4ccc(F)cc4c3C)c(S(C)(=O)=O)c2)n1` [Compound 68], the melting point lay within 206 to 208 °C. In series [5], this compound gave an IC50 of 101 nM.

Take `COC(=O)c1ccc(NS(=O)(=O)c2sc3ccccc3c2C)c(S(C)(=O)=O)c1` [Compound 20, methyl 4-(3-methylbenzo[b]thiophene-2-sulfonylamino)-3-methanesulfonylbenzoate]: the values for the IC50 in series [1] and in series [5] (setting [6]) were 39 nM and 305 nM, respectively.

Values taken from patent US7071220B2, “N-substituted benzothiophenesulfonamide derivatives” (Toa Eiyo Ltd., priority 2000, dated 2006).
